Where two headings read alike, the source gives them in different places.
Tests used:
[1] = system: 15-epi-lipoxin A4 production by EA.hy926 cells; assay: 15-epi-lipoxin A4 determination by ELISA in culture supernatants; format: cell-based, human; details: ELISA (Fig 7A); for 15-epi-LXA4 production in T. cruzi-infected endothelial cells: EA.hy926 infected 16 hours, drug added afterwards
Procedure: 8x10^5 EA.hy926 cells/well were cultured in 6-well plates (IMDM 10% SFB). […] 15-epi-LXA4 determination was performed by:
• ELISA assay: the supernatant from the cell cultures was assayed using a 15-epi-LXA4 BioAssay ELISA Kit (USBiological, USA) following manufacturer’s instructions. • AxION DSA—TOF MS determination: To determine 15-epi-lipoxin A4 levels in EAhy926 cell culture supernatants, an AxION Direct Sample Analysis (DSA) that was integrated with an AxION 2 time-of-flight (TOF) mass spectrometer (PerkinElmer, Shelton, CT, USA) was employed. For extraction, all of the samples were loaded onto a solid phase extraction and eluted with 1 mL chloroform three times successively. Then, the samples were transferred into a clean tube, and the chloroform in the samples was evaporated in a water bath. Finally, the samples were resuspended in 100 μL ethanol, and 10 μL were pipetted onto a stainless mesh. For the calibration curve, 15-epi-lipoxin A4 (cat#90415, Cayman Chemical, USA) was diluted in PBS to achieve different final concentrations (see S1 Fig). From each tube, 10 μL was pipetted onto a stainless mesh, and DSA—TOF determination was performed. The AxION DSA conditions were as follows: 5 μA corona current, 250°C heater temperature, 80 psi auxiliary gas (N2) pressure, 4 L/min drying gas (N2) flow, and 25°C drying gas (N2) temperature. […] Mass spectra were acquired with a mass range of 100–1000 m/z and an acquisition rate of 2 spectra/sec. To maintain mass accuracy, […] lock mass ions were used (m/z 119.0400, m/z 556.0000 and m/z 805.9900). All of the samples were analyzed for only 10 sec. The standards used were 15-epi-lipoxin A4 (cat#90415, Cayman Chemical,) and 5(S),6(R)-Lipoxin A4 methyl ester (cat#10033, Cayman Chemical) as an internal standard. These were confirmed in seconds by accurate mass and isotopic distribution of parent and fragment ions using DSA/TOF and AxION software, and compound identification was performed using the standards. All of the samples were analyzed in triplicate.

[2] = system: HL-60 leukocyte adhesion to T. cruzi-infected endothelial cells; assay: Leukocyte-endothelium cell adhesion assay; format: cell-based, human; details: 5 μM simvastatin or 20 μM benznidazole for 24 hours before 16 hours infection; HL-60 leukocytes
Procedure: The leukocyte adhesion assay was performed with the Cytoselect Leukocyte-Endothelium Adhesion Assay kit (CBA-210; Cell Biolabs, USA). Briefly, EA.hy926 cells were cultured in 96-well plates that had been previously coated with gelatin for 1 hour. […] LeukoTracker-labeled leukocytes (HL60 cells) were added to the monolayer and incubated for 90 min. After thorough washing, cells were lysed, and fluorescence was measured at 480 nm excitation/520 nm emission. The percentage of adherent leukocytes was calculated: % adherence = adherent signal/total signal. All of the determinations were performed in triplicate using a fluorescence microplate reader (Varioskan, Thermo Scientific).

HUVEC = assay: Cell viability by MTT reduction assay, HUVEC; format: cell-based; details: Homo sapiens, 24 hours incubation, mean ± SD, n = 3, read-out: IC50, cellular viability, HUVEC
Procedure: HUVECs (C-015-10C, Cascade Biologics, Life Technologies, USA) are primary human umbilical vein endothelial cells that are pooled from multiple donors. Cells were cultured in medium 200 (Cascade Biologics, USA) that had been supplemented with low serum growth supplement (LSGS, Cascade Biologics).
The effect of the drug on all cells and parasite viability was evaluated through the tetrazolium salt (MTT, Sigma-Aldrich) reduction assay as described. […] Cultures were incubated for 24 hours before adding MTT for 4 hours. The plates were incubated overnight with 10% SDS w/v in 0.01 M HCl at 37°C, and optical density (OD) was determined using a microplate reader (Labsystems Multiskan MS, Finland) at 570 nm. Under these conditions, the OD was directly proportional to viable cell number per well. All of the experiments were performed at least three times, and the data are shown as the means and their standard deviations from triplicate cultures.

[3] = system: NF-κB pathway (p-IKK, p-IκB) in T. cruzi-infected EA.hy926 cells; assay: IKK and IκB phosphorylation by Western blot; format: cell-based, human; details: 5 μM simvastatin or 20 μM benznidazole, T. cruzi 1 hour
Procedure: 5x10^5 endothelial cells were rinsed once with PBS and scraped. Proteins were extracted into 100 μL RIPA buffer plus a protease and phosphatase inhibitor cocktail (Radio-Immunoprecipitation Assay; Millipore Corporation, USA) at 4°C. Total protein was quantified with the Lowry assay. Samples in loading buffer (10% SDS, 50% glycerol, 0.5 M Tris, 0.1% bromophenol blue, and 1 M dithiothreitol, pH 6.8) were electrophoretically separated by 10% SDS-PAGE and transferred to a nitrocellulose membrane. Nitrocellulose membranes were incubated with blocking solution (5% w/v nonfat dry milk, 0.1% Tween-20 in Tris-buffered saline) at room temperature for 1 hour. Then, the membranes were incubated at 4°C overnight with 1 mL solution of primary antibodies against E-selectin (1:1000) and α-Tubulin (1:10.000) from Sigma-Aldrich, ICAM-1 (1:2000) and VCAM-1 (1:1000) from Abcam, 7 ml solution of p-IKK (1:1000), IKK (1:1000), p-IκB (1:1000) and IκB (1:1000) from Cell signaling (Cell Signaling Technologies, USA). Bound antibodies were detected with horseradish peroxidase-conjugated secondary antibodies and visualized by Lumminata forte (Millipore). The nitrocellulose was stripped between reprobes using Mild stripping (Millipore) for 10 minutes. Developed films were scanned, and band densitometry was analyzed using ImageJ software (ImageJ 1.47v).

Trypomastigotes Dm28c = assay: Parasite viability by MTT reduction assay, trypomastigotes; format: cell-based; details: Trypanosoma cruzi, read-out: IC50, cellular viability, Trypomastigotes Dm28c
Procedure: T. cruzi trypomastigotes (Dm28c clone) from our collection, were obtained from infected EA.hy926 cells. Cells were exposed to trypomastigotes (Dm28c clone) at a multiplicity of infection (MOI) of 5. Trypomastigotes were allowed to infect cells for 24 hours, after which the supernatant was removed and fresh medium was added. Trypomastigotes were released from EA.hy926 cells after four days of infection. The parasites were harvested and collected for viability assays and further cell infections.
The effect of the drug on all cells and parasite viability was evaluated through the tetrazolium salt (MTT, Sigma-Aldrich) reduction assay as described. Drugs at concentrations ranging from 1 to 20 μM, dissolved in DMSO at a 0.025% v/v final concentration, were applied to 2.5x10^5 cells/mL or 10^6 parasite/mL culture medium. Cultures were incubated for 24 hours before adding MTT for 4 hours. The plates were incubated overnight with 10% SDS w/v in 0.01 M HCl at 37°C, and optical density (OD) was determined using a microplate reader (Labsystems Multiskan MS, Finland) at 570 nm. Under these conditions, the OD was directly proportional to viable cell number per well. All of the experiments were performed at least three times, and the data are shown as the means and their standard deviations from triplicate cultures.

O=C(Cn1ccnc1[N+](=O)[O-])NCc1ccccc1 [Benznidazole]
15-epi-LXA4 production in T. cruzi-infected endothelial cells [1]: did not induce | Leukocyte adhesiveness to infected endothelial cells [2]: adhesiveness decreased | IC50 (HUVEC): < 100 µM | Response of the IKK-IκB system (p-IKK, p-IκB) [3]: significantly decreased the response of the Ikk-IkB system | IC50 (Trypomastigotes Dm28c; 24 h): 20.8 ± 1.35 µM

CCC(C)(C)C(=O)O[C@H]1C[C@@H](C)C=C2C=C[C@H](C)[C@H](CC[C@@H]3C[C@@H](O)CC(=O)O3)[C@H]21 [Simvastatin]
15-epi-LXA4 levels with drug alone ([1]; 5 μM simvastatin, EA.hy926 without T. cruzi): rose slightly | 15-epi-LXA4 production in T. cruzi-infected endothelial cells [1]: induced 15-epi-LXA4 | Leukocyte adhesiveness to infected endothelial cells [2]: adhesiveness decreased | IC50 (HUVEC): 84.4 ± 1.56 µM | Response of the IKK-IκB system (p-IKK, p-IκB) [3]: significantly decreased the response of the Ikk-IkB system | IC50 (Trypomastigotes Dm28c; MTT assay, 24 hours incubation, mean ± SD, n = 3): 4.2 ± 1.06 µM
